Measurements published in US9169240B2, “Ketone linked benzothiazole inhibitors of endothelial lipase” (BRISTOL-MYERS SQUIBB COMPANY, priority 2012, dated 2015).

The molecules below were run against Endothelial lipase (EL) (Homo sapiens (Human), UniProt Q9Y5X9) (assay: Endothelial lipase (EL) activity assay with fluorescent substrate A10070 in DMPG vesicles).
Format: biochemical
Experimental: Endothelial lipase activity was measured using a fluorescent substrate, A10070, (Invitrogen, CA) doped into an artificial vesicle containing DMPG (Avanti Polar Lipids) as the excipient. Vesicles were prepared by combining 285 μL of 1 mM DMPG in a 1:1 mixture of MeOH and CHCl3 with 15 μL of 1 mM A10070 in a 1:1 mixture of MeOH and CHCl3. The mixture was dried under nitrogen and resuspended in 150 μL of 50 mM HEPES pH 8.0 buffer containing 100 mM NaCl and 0.2 mM EDTA. The sample was allowed to sit at rt for 15 min and then was sonicated 3×4 mins on ice with a Branson Sonicator using duty cycle 1. This preparation provides vesicles with a mole fraction of 0.05 for the FRET substrate.
The enzymatic assay was measured using white, opaque 96-well half area plates. Each well contained 60 μL of assay buffer (50 mM HEPES pH 8.0, 50 mM NaCl and 1 mM CaCl2) and 2 ul of a DMSO solution containing compound of interest. Conditioned media obtained from HT-1080 cells, which were transformed by RAGE technology (Athersys) to overexpress endogenous EL, was added and the reaction was allowed to incubate for 20 min at 37° C. with gentle agitation. The reaction was started by the addition of 20 μL of a 1:4 dilution of vesicles. The final total reaction volume was 100 μL. The reaction rates were measured on a Gemini plate reader with an excitation wavelength of 488 nm and an emission of 530 nm. Readings were taken every 20 seconds for 10 min with agitation between each reading. The slope of the linear portion of the readout was used to calculate the rate of the reaction.

Chain of Endothelial lipase (EL) (Q9Y5X9 21-500): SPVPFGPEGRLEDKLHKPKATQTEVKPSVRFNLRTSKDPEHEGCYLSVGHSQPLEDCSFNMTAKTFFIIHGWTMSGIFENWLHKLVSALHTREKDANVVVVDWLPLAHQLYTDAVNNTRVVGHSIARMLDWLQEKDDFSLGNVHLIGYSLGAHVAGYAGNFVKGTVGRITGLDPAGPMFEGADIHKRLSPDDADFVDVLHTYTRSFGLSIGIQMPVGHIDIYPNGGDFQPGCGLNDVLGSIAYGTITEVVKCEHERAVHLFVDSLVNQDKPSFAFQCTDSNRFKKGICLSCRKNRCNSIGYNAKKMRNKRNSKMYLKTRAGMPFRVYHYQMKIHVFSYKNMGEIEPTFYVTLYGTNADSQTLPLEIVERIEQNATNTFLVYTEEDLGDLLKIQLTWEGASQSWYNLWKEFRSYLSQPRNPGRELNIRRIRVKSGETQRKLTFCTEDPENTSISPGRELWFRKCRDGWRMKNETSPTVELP

| Compound | IC50 [nM] |
| --- | --- |
| CC(C)(C)OC(=O)N1CCC(c2nnc(C(=O)c3nc4ccc(-c5ccc(F)cc5)cc4s3)o2)CC1 [Example 18, tert-butyl 4-(5-(6-(4-fluorophenyl)benzo[d]thiazole-2-carbonyl)-1,3,4-oxadiazol-2-yl)piperidine-1-carboxylate] | < 10 |
| O=C(c1nnc(NCCc2cccnc2)o1)c1nc2ccc(-c3ccccc3)cc2s1 [Example 76, (6-phenylbenzo[d]thiazol-2-yl)(5-((2-(pyridin-3-yl)ethyl)amino)-1,3,4-oxadiazol-2-yl)methanone] | 36 |
| O=C(c1nnc(N2CCN(c3ccc(C(F)(F)F)cc3)CC2)o1)c1nc2ccc(-c3ccccc3)cc2s1 [Example 88, (6-Phenylbenzo[d]thiazol-2-yl)(5-(4-(4-(trifluoromethyl)phenyl)piperazin-1-yl)-1,3,4-oxadiazol-2-yl)methanone] | 494 |
| O=C(c1nnc(C2CCN(Cc3ccc(F)cc3)CC2)o1)c1nc2ccc(-c3ccccc3)cc2s1 [Example 17, (5-(1-(4-fluorobenzyl)piperidin-4-yl)-1,3,4-oxadiazol-2-yl)(6-phenylbenzo[d]thiazol-2-yl)methanone] | < 10 |

Continued, values first:

| IC50 [nM] | Compound |
| --- | --- |
| 22 | CN1CCC(Nc2nnc(C(=O)c3nc4ccc(-c5ccccc5)cc4s3)o2)C1=O (stereo not drawn) [Example 71, 1-methyl-3-((5-(6-phenylbenzo[d]thiazole-2-carbonyl)-1,3,4-oxadiazol-2-yl)amino)pyrrolidin-2-one] |
| < 10 | CC1(Cc2nnc(C(=O)c3nc4ccc(-c5ccccc5)cc4s3)o2)NC(=O)NC1=O (stereo not drawn) [Example 34, 5-methyl-5-((5-(6-phenylbenzo[d]thiazole-2-carbonyl)-1,3,4-oxadiazol-2-yl)methyl)-imidazol-idine-2,4-dione] |
